Measured values as given in patent publication US20240059691A1 (KALVISTA PHARMACEUTICALS LIMITED, priority 2020, published 2024).

What was measured:
Assay type in all cases: biochemical
KLK1 = KLK1 (Homo sapiens (Human), UniProt P06870); test: Determination of related protease inhibition: KLK1 (fluorogenic substrate at Km); settings: 25° C.
Experimental: (§1) Determination of Related Protease Inhibition
(§2) In vitro inhibition of related proteases was determined using an ([…] assay based on standard literature methods (see e.g. Shori et al., Biochem. Pharmacol., 1992, 43, 1209; Bouckaert et al., European Journal of Medicinal Chemistry 110 (2016) 181). Human serine protease enzymes Plasma Kallikrein, KLK1, FXa, Plasmin, Thrombin and Trypsin were assayed for enzymatic activity using an appropriate fluorogenic substrate at Km concentration, FXIa at fixed substrate concentration of 100 μM, and various concentrations of the test compound. Protease activity was measured by monitoring the accumulation of liberated fluorescence from the substrate over […]. The linear rate of fluorescence increase per minute was expressed as percentage (%) activity. IC50 values were calculated as the concentration of inhibitor giving 50% inhibition of the uninhibited enzyme activity (100%).

Plasma Kallikrein = Plasma Kallikrein (Homo sapiens (Human), UniProt P03952); test: Determination of related protease inhibition: Plasma Kallikrein (fluorogenic substrate at Km); settings: 25° C., read-out: IC50 (human PKal)
Plasma Kallikrein, sequence (P03952 391-638): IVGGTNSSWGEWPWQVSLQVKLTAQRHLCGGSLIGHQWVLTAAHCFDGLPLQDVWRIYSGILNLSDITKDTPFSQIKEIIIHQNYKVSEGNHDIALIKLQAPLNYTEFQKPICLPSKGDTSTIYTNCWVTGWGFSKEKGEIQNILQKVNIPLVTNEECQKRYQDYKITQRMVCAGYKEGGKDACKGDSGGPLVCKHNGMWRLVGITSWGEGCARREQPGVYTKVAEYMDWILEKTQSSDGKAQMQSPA
Plasma Kallikrein, sequence (P03952 20-390 partner): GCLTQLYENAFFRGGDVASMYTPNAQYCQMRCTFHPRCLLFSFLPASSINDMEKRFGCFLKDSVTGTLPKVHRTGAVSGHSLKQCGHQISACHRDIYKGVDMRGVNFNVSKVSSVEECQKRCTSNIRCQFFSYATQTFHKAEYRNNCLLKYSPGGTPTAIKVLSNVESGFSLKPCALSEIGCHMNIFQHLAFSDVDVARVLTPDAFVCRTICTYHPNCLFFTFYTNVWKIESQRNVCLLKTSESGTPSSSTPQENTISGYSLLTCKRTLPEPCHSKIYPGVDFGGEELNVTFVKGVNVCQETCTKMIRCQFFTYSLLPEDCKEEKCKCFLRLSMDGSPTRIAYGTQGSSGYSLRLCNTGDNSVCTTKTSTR
Procedure, shortened: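 Human enzyme incubated with test compound over a concentration range and a fluorogenic substrate at its Km concentration. Liberated fluorescence monitored over 5 min at 25 °C; linear rate per minute expressed as % of uninhibited activity, and IC50 taken as the concentration giving 50% inhibition.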

Thrombin = Thrombin (Homo sapiens (Human), UniProt P00734); test: Determination of related protease inhibition: Thrombin (fluorogenic substrate at Km); settings: 25° C.
Experimental: as §1, §2

Human Factor XIIa = Human Factor XIIa (Homo sapiens (Human), UniProt P00748); test: Determination of FXIIa inhibition (fluorogenic substrate H-DPro-Phe-Arg-AFC, IC50 assay); settings: substrate H-DPro-Phe-Arg-AFC at Km, 25° C.; for IC50: class scale A-G
Human Factor XIIa, sequence (P00748 373-615): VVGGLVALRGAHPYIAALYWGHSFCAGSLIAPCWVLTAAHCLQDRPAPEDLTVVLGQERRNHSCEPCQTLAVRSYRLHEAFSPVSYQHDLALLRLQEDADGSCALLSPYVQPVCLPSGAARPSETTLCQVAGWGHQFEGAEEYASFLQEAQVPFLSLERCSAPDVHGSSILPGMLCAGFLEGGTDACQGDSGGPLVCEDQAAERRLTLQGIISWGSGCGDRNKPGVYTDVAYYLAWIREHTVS
Procedure, shortened: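 Human FXIIa incubated at 25° C with fluorogenic substrate H-DPro-Phe-Arg-AFC at its Km concentration and varying compound concentrations. Fluorescence release monitored over 5 min at 25° C; linear rate expressed as % of uninhibited activity to derive IC50.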

FXa = FXa (Homo sapiens (Human), UniProt P00742); test: Determination of related protease inhibition: FXa (fluorogenic substrate at Km); settings: 25° C.
FXa, sequence (P00742 235-488): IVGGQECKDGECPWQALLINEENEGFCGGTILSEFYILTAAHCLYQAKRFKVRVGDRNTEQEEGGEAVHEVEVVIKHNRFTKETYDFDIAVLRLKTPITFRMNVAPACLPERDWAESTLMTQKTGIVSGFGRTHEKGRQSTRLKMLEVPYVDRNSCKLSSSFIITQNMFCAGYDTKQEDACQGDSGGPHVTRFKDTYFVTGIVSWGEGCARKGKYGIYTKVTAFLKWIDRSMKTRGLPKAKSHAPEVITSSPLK
FXa, sequence (P00742 41-179 partner): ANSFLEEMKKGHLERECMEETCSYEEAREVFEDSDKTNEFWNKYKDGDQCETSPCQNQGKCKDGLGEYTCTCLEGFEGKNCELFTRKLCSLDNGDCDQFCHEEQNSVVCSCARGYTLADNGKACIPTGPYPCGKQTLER
Experimental: as §1, §2

KLK1, sequence (P06870 25-262): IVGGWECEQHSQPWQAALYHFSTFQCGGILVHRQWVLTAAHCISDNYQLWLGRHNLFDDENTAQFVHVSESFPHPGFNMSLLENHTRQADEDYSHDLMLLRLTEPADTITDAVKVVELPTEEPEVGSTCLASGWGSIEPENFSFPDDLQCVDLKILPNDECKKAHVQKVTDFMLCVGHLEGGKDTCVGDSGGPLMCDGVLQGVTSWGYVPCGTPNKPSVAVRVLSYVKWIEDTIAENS

Structure (SMILES) | IC50 (KLK1) [µM] | IC50 (Plasma Kallikrein) [µM] | IC50 (Thrombin) [µM] | IC50 (Human Factor XIIa) [µM] | IC50 (FXa) [µM] | Human FXIIa IC50 (nM): test compounds that did not achieve 50% inhibition (Human Factor XIIa; class scale H1-H3 for compounds that did not achieve 50% inhibition)
CN1CCC(COc2cc(CNc3ccnc4c(N)nccc34)ccn2)CC1 [Example 4272, 4-N-[[2-[(1-methyl-4-piperidyl)methoxy]-4-pyridyl]methyl]-1,7-naphthyridine-4,8-diamine] | > 40 | > 40 | > 40 | 3 to 10 | > 40 | 
COc1nnc2n1CCN(c1ccc(CNc3cccc4c(N)nccc34)cn1)C2 [Example 1250, N5-((6-(3-methoxy-5,6-dihydro-[1,2,4]triazolo[4,3-a]pyrazin-7(8H)-yl)pyridin-3-yl)methyl)isoquinoline-1,5-diamine] | 3 to 10 | > 40 | > 40 | 1 to 3 | > 40 | 
Cn1ccnc1CCOCc1ccc(CNc2cccc3c(N)nccc23)c(F)c1 [Example 2208, N5-[[2-fluoro-4-[2-(1-methylimidazol-2-yl)ethoxymethyl]phenyl]methyl]isoquinoline-1,5-diamine] | 10 to 40 | > 40 | 10 to 40 | 1 to 3 | 10 to 40 | 
CC1CN(c2ccc(CNc3cccc4c(N)nccc34)cn2)Cc2nnc(C(F)(F)F)n21 (single isomer, unassigned) [Example 1296, (R*)-N5-((6-(5-methyl-3-(trifluoromethyl)-5,6-dihydro-[1,2,4]triazolo[4,3-a]pyrazin-7(8H)-yl)468yridine-3-yl)methyl)isoquinoline-1,5-diamine] | 3 to 10 | 10 to 40 |  | 1 to 3 | > 40 | 
CC1CN(c2ccc(CNc3cccc4c(N)nccc34)cn2)Cc2nnc(C(F)(F)F)n21 (single isomer, unassigned) [Example 1297, (S*)-N5-((6-(5-methyl-3-(trifluoromethyl)-5,6-dihydro-[1,2,4]triazolo[4,3-a]pyrazin-7(8H)-yl)pyridin-3-yl)methyl)isoquinoline-1,5-diamine] | 1 to 3 | > 40 |  | 1 to 3 | > 40 | 
CC1c2nnc(C(F)(F)F)n2CCN1c1ccc(CNc2cccc3c(N)nccc23)cn1 (single isomer, unassigned) [Example 1295, (S*)-N5-((6-(8-methyl-3-(trifluoromethyl)-5,6-dihydro-[1,2,4]triazolo[4,3-a]pyrazin-7(8H)-yl)pyridin-3-yl)methyl)isoquinoline-1,5-diamine] | 3 to 10 | 10 to 40 |  | 0.01 to 0.1 | > 40 | 
CC(C)(O)c1cn(-c2ccc(CNc3cccc4c(N)nccc34)cn2)nn1 [Example 1291, 2-(1-(5-(((1-aminoisoquinolin-5-yl)amino)methyl)pyridin-2-yl)-1H-1,2,3-triazol-4-yl)propan-2-ol] | 10 to 40 |  |  | 3 to 10 | > 40 | 
N#Cc1cc(NCc2ccc(N3CCn4c(nnc4C(F)(F)F)C3)nc2)c2cc(Cl)[nH]c2n1 [Example 1292] | > 40 |  |  |  | > 40 | H1 (>20% inhibition @ 40 μM)
Nc1nccc2c(N3CCCC3c3ccc(N4CCn5c(nnc5C(F)(F)F)C4)nc3)cccc12 (single isomer, unassigned) [Example 10003, (S*)-5-(2-(6-(3-(trifluoromethyl)-5,6-dihydro-[1,2,4]triazolo[4,3-a]pyrazin-7(8H)-yl)pyridin-3-yl)pyrrolidin-1-yl)isoquinolin-1-amine] | > 40 |  |  | 3 to 10 | > 40 | 
CN1CCC(COc2cc(CNc3ccc4c(N)nccc4c3)cc(C(F)(F)F)n2)CC1 [Example 4265, N6-((2-((1-methylpiperidin-4-yl)methoxy)-6-(trifluoromethyl)pyridin-4-yl)methyl)isoquinoline-1,6-diamine] | 0.3 to 1 |  | 0.3 to 1 | 0.1 to 0.3 | 1 to 3 | 
Nc1nccc2c(N3CCCC3c3ccc(N4CCn5c(nnc5C(F)(F)F)C4)nc3)cccc12 (racemic) [Example 10002, 5-(2-(6-(3-(Trifluoromethyl)-5,6-dihydro-[1,2,4]triazolo[4,3-a]pyrazin-7(8H)-yl)pyridin-3-yl)pyrrolidin-1-yl)isoquinolin-1-amine] | 10 to 40 |  |  | 1 to 3 | > 40 | 
CC1CN(c2ccc(CNc3cccc4c(N)nccc34)cn2)Cc2nnc(C(F)(F)F)n21 (stereo not drawn) [Example 1287, N5-((6-(5-methyl-3-(trifluoromethyl)-5,6-dihydro-[1,2,4]triazolo[4,3-a]pyrazin-7(8H)-yl)pyridin-3-yl)methyl)isoquinoline-1,5-diamine] | 1 to 3 |  |  | 1 to 3 | > 40 | 

Second part, led by results:

IC50 (KLK1) [µM] | IC50 (Plasma Kallikrein) [µM] | IC50 (Thrombin) [µM] | IC50 (Human Factor XIIa) [µM] | IC50 (FXa) [µM] | Structure (SMILES) | Human FXIIa IC50 (nM): test compounds that did not achieve 50% inhibition (Human Factor XIIa; class scale H1-H3 for compounds that did not achieve 50% inhibition)
> 40 | > 40 |  | 0.1 to 0.3 | > 40 | Cc1cc(N2CCn3c(nnc3C(F)(F)F)C2)nc(C)c1CNc1cccc2c(N)nccc12 [Example 9006, N5-((2,4-dimethyl-6-(3-(trifluoromethyl)-5,6-dihydro-[1,2,4]triazolo[4,3-a]pyrazin-7(8H)-yl)pyridin-3-yl)methyl)isoquinoline-1,5-diamine] | 
3 to 10 | > 40 |  | 0.1 to 0.3 | > 40 | Nc1nccc2c(NCc3cnc(N4CCn5c(nnc5C(F)(F)F)C4)cc3C(F)(F)F)cccc12 [Example 1301, N5-((4-(trifluoromethyl)-6-(3-(trifluoromethyl)-5,6-dihydro-[1,2,4]triazolo[4,3-a]pyrazin-7(8H)-yl)pyridin-3-yl)methyl)isoquinoline-1,5-diamine] | 
10 to 40 | > 40 |  | 1 to 3 | > 40 | Nc1nccc2c(NCc3ccc(N4CCn5c(nnc5C(F)(F)F)C4)nc3C(F)(F)F)cccc12 [Example 1298, N5-((2-(trifluoromethyl)-6-(3-(trifluoromethyl)-5,6-dihydro-[1,2,4]triazolo[4,3-a]pyrazin-7(8H)-yl)pyridin-3-yl)methyl)isoquinoline-1,5-diamine] | 
3 to 10 | > 40 |  | 0.01 to 0.1 | > 40 | Nc1nccc2c(NCc3cnc(N4CCn5c(nnc5C(F)(F)F)C4)cc3Cl)cccc12 [Example 1299, N5-((4-Chloro-6-(3-(trifluoromethyl)-5,6-dihydro-[1,2,4]triazolo[4,3-a]pyrazin-7(8H)-yl)pyridin-3-yl)methyl)isoquinoline-1,5-diamine] | 
3 to 10 |  |  | 0.3 to 1 | > 40 | Cc1nc(N2CCn3c(nnc3C(F)(F)F)C2)ccc1CNc1cccc2c(N)nccc12 [Example 1284, N5-((2-methyl-6-(3-(trifluoromethyl)-5,6-dihydro-[1,2,4]triazolo[4,3-a]pyrazin-7(8H)-yl)pyridin-3-yl)methyl)isoquinoline-1,5-diamine] | 
3 to 10 | > 40 |  | 10 to 40 | > 40 | CC1c2nnc(C(F)(F)F)n2CCN1c1ccc(CNc2cccc3c(N)nccc23)cn1 (single isomer, unassigned) [Example 1294, (R*)-N5-((6-(8-methyl-3-(trifluoromethyl)-5,6-dihydro-[1,2,4]triazolo[4,3-a]pyrazin-7(8H)-yl)pyridin-3-yl)methyl)isoquinoline-1,5-diamine] | 
3 to 10 | > 40 |  | 0.1 to 0.3 | > 40 | Nc1nccc2c(NCc3ccc(N4CCn5c(nnc5C(F)(F)F)C4)cn3)cccc12 [Example 9001, N5-((5-(3-(trifluoromethyl)-5,6-dihydro-[1,2,4]triazolo[4,3-a]pyrazin-7(8H)-yl)pyridin-2-yl)methyl)isoquinoline-1,5-diamine] | 
3 to 10 | > 40 |  | 0.1 to 0.3 | > 40 | Nc1nccc2c(NCc3ccc(N4CCn5c(nnc5C(F)(F)F)C4)cc3)cccc12 [Example 1300, N5-(4-(3-(trifluoromethyl)-5,6-dihydro-[1,2,4]triazolo[4,3-a]pyrazin-7(8H)-yl)benzyl)isoquinoline-1,5-diamine] | 
1 to 3 | 10 to 40 |  | 10 to 40 | > 40 | Cc1cc(CNc2cccc3c(N)nccc23)cnc1N1CCn2c(nnc2C(F)(F)F)C1 [Example 1302, N5-((5-methyl-6-(3-(trifluoromethyl)-5,6-dihydro-[1,2,4]triazolo[4,3-a]pyrazin-7(8H)-yl)pyridin-3-yl)methyl)isoquinoline-1,5-diamine] | 
3 to 10 |  |  | 0.3 to 1 | > 40 | CC1c2nnc(C(F)(F)F)n2CCN1c1ccc(CNc2cccc3c(N)nccc23)cn1 (stereo not drawn) [Example 1285, N5-((6-(8-methyl-3-(trifluoromethyl)-5,6-dihydro-[1,2,4]triazolo[4,3-a]pyrazin-7(8H)-yl)pyridin-3-yl)methyl)isoquinoline-1,5-diamine] | 
